According to ChEMBL document CHEMBL1743341, “Cytochrome p450 enzymes mechanism based inhibitors: common sub-structures and reactivity” (Curr Drug Metab, 2005):
Blank lines part the entries; values can stand above or below the molecule they belong to.

Columns and labels:
CYP2B6 = molecular target: T1, CYP2B6 (Homo sapiens, UniProt P20813); assay: (§1) Mechanism based inhibition of human cytochrome P450 2B6 measured by N-(3,5-dichloro-4-pyridyl)-3- (cyclopentoxy)-4- methoxybenzamide (DCMB) hydroxylase activity; assay type: ADME; settings: human
T1 sequence (P20813 whole entry): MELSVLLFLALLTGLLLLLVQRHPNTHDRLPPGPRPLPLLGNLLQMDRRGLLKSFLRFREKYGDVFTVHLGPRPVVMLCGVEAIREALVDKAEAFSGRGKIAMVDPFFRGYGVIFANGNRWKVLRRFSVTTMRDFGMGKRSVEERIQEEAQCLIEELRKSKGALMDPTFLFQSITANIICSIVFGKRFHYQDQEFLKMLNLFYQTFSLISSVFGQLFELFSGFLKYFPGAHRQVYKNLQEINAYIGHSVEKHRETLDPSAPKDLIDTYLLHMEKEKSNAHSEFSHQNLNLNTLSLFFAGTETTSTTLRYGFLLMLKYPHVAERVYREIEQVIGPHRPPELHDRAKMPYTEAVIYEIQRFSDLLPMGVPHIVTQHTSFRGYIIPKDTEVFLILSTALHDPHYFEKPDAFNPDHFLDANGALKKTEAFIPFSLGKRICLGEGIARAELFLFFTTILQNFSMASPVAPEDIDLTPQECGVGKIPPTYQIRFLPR

Cytochrome P450 2B6 [1] = molecular target: T2, Cytochrome P450 2B6 (Homo sapiens, UniProt P20813); assay: as §1; assay type: ADME
T2 sequence (P20813 whole entry): T1 sequence (P20813 whole entry)

Cytochrome P450 2B6 [2] = molecular target: T2, Cytochrome P450 2B6; assay: Mechanism based inhibition of human cytochrome P450 2B6; assay type: ADME
Cytochrome P450 2C19 [3] = molecular target: T3, Cytochrome P450 2C19 (Homo sapiens, UniProt P33261); assay: Mechanism based inhibition of human cytochrome P450 2C19; assay type: ADME
Cytochrome P450 2C9 = Cytochrome P450 2C9 (Homo sapiens, UniProt P11712); assay: Mechanism based inhibition of human cytochrome P450 2C9; assay type: ADME
Cytochrome P450 2A13 = Cytochrome P450 2A13 (Homo sapiens, UniProt Q16696); assay: Mechanism based inhibition of human cytochrome P450 2A13 measured by coumarin 7-hydroxylation and testosterone 15-hydroxylation; assay type: ADME
CYP2B4 = molecular target: T4, CYP2B4 (Oryctolagus cuniculus, UniProt P00178); assay: (§2) Mechanism based inhibition of rabbit cytochrome P450 CYP2B4 measured by 7-EFC O-deethylation activity; assay type: ADME; settings: rabbit, probe 7-EFC (O-deethylation)
T4 sequence (P00178 whole entry): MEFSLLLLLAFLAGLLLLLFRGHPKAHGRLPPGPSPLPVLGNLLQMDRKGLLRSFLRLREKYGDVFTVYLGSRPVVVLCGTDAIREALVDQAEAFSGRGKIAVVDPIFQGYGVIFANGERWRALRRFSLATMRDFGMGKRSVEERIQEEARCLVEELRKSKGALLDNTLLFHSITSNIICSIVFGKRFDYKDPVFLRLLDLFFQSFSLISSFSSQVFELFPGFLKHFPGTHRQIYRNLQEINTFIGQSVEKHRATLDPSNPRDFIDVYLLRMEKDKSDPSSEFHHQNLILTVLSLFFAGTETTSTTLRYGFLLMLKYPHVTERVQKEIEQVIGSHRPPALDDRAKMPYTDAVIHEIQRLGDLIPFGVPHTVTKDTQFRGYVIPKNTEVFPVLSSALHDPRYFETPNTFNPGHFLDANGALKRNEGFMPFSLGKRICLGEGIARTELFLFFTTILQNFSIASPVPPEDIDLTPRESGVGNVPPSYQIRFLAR

Cytochrome P450 2B4 [4] = molecular target: T5, Cytochrome P450 2B4 (Oryctolagus cuniculus, UniProt P00178); assay: as §2; assay type: ADME
T5 sequence (P00178 whole entry): T4 sequence (P00178 whole entry)

Cytochrome P450 2B4 [5] = molecular target: T5, Cytochrome P450 2B4; assay: Mechanism based inhibition of rabbit cytochrome P450 CYP2B4 partition ratio; assay type: ADME
[6] = molecular target: Cytochrome P450 2E1 (Oryctolagus cuniculus) (UniProt P08682); assay: Mechanism based inhibition of rabbit cytochrome P450 CYP2E1 measured by 7-EFC O-deethylation activity; settings: probe 7-EFC (O-deethylation)
Cytochrome P450 2C19 [7] = molecular target: T3, Cytochrome P450 2C19; assay: Mechanism based inhibition of human cytochrome P450 2C19 evaluated using Tolbutamide; assay type: ADME
Cytochrome P450 2C8 [8] = molecular target: T6, Cytochrome P450 2C8 (Homo sapiens, UniProt P10632); assay: Mechanism based inhibition of human cytochrome P450 2C8 using human liver microsomes; assay type: ADME, Microsome
T6 sequence (P10632 whole entry): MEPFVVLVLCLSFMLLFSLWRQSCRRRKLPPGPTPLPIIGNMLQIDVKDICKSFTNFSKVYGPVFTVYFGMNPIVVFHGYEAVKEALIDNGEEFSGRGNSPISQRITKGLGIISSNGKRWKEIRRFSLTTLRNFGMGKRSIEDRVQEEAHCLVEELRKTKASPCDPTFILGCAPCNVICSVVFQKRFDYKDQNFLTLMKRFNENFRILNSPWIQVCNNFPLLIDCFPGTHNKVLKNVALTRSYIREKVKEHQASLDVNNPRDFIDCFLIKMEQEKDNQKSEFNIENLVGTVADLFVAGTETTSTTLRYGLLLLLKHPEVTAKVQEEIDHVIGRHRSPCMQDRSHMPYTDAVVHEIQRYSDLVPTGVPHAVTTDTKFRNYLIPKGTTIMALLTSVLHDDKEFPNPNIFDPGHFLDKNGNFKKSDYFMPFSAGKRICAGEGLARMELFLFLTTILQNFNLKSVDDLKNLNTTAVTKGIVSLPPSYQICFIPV

Cytochrome P450 1A2 [9] = molecular target: T7, Cytochrome P450 1A2 (Homo sapiens, UniProt P05177); assay: Mechanism based inhibition of human cytochrome P450 1A2 measured by phenacetin O-deethylation (POD); assay type: ADME
T7 sequence (P05177 whole entry): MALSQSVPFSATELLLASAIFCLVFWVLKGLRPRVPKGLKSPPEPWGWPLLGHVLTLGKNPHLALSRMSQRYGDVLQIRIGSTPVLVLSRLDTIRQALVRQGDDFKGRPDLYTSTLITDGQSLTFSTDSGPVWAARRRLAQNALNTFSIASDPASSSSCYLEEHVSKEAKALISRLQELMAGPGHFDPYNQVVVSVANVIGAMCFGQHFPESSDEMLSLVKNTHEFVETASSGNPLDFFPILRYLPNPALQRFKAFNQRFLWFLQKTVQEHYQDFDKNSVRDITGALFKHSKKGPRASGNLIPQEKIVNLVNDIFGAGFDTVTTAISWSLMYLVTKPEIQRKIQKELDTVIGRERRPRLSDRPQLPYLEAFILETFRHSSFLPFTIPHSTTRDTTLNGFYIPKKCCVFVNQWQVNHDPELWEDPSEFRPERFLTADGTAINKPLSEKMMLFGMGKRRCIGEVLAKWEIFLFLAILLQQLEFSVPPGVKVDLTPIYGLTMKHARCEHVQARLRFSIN

Cytochrome P450 2A6 = molecular target: T8, Cytochrome P450 2A6 (Homo sapiens, UniProt P11509); assay: Mechanism based inhibition of human cytochrome P450 2A6 measured by coumarin 7-hydroxylation; assay type: ADME
T8 sequence (P11509 whole entry): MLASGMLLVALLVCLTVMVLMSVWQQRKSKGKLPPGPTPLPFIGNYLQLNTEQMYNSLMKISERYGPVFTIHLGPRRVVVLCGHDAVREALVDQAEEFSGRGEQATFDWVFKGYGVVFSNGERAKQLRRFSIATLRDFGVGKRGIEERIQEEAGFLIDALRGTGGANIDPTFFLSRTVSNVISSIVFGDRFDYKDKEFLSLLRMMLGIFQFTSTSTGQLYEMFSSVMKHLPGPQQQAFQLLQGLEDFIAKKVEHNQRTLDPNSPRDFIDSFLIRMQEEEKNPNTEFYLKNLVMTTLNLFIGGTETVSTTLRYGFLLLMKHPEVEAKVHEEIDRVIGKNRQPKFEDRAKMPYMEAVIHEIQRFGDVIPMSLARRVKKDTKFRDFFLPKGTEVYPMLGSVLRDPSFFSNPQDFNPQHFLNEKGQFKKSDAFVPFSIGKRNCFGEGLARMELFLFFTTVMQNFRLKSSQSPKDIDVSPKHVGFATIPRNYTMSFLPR

Cytochrome P450 2C8 [10] = molecular target: T6, Cytochrome P450 2C8
Description: (§4) Mechanism based inhibition of human cytochrome P450 2C8 measured by paclitaxel hydroxylation using a recombinant system

Cytochrome P450 2C8 [11] = molecular target: T6, Cytochrome P450 2C8; remark: listed apart in the source
Description: (§5) Mechanism based inhibition of human cytochrome P450 2C8 measured by paclitaxel hydroxylation using human liver microsomes

CYP2C8 [12] = molecular target: T9, CYP2C8 (Homo sapiens, UniProt P10632); assay: in vitro; settings: human liver microsomes, probe paclitaxel
T9 sequence (P10632 whole entry): T6 sequence (P10632 whole entry)
Description: as §5

CYP2C8 [13] = molecular target: T9, CYP2C8; assay: in vitro; settings: recombinant CYP2C8, probe paclitaxel
Description: as §4

CYP1A2 = molecular target: T10, CYP1A2 (Homo sapiens, UniProt P05177); assay: (§3) Mechanism based inhibition of human cytochrome P450 1A2 measured by 7-ethoxyresorufin O-deethylation (EROD); settings: human, probe 7-ethoxyresorufin (O-deethylation, EROD)
T10 sequence (P05177 whole entry): T7 sequence (P05177 whole entry)

Cytochrome P450 1A2 [14] = molecular target: T7, Cytochrome P450 1A2; assay: as §3
Cytochrome P450 2B6 [15] = molecular target: T2, Cytochrome P450 2B6; assay: Mechanism based inhibition of human cytochrome P450 2B6 measured by 7-EFC O-deethylation; assay type: ADME
Cytochrome P450 3A4 = Cytochrome P450 3A4 (Homo sapiens, UniProt P08684); assay: Mechanism based inhibition of human cytochrome P450 3A4 measured by midazolam 1'-hydroxylation; assay type: ADME
Chain of Cytochrome P450 3A4 (P08684 whole entry): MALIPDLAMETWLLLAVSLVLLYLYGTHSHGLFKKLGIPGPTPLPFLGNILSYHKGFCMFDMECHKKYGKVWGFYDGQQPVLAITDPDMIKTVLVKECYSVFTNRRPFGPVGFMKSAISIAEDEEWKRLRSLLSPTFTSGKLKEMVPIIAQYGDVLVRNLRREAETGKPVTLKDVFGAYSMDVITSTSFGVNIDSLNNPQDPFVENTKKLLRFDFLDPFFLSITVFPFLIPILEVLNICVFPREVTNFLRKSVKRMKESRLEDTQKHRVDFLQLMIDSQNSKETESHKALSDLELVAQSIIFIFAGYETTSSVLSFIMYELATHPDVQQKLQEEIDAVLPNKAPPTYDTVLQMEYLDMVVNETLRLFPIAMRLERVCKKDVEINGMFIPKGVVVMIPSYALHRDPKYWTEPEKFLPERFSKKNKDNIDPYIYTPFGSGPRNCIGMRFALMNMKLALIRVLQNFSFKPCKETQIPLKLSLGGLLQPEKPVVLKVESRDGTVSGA

T3 sequence (P33261 whole entry): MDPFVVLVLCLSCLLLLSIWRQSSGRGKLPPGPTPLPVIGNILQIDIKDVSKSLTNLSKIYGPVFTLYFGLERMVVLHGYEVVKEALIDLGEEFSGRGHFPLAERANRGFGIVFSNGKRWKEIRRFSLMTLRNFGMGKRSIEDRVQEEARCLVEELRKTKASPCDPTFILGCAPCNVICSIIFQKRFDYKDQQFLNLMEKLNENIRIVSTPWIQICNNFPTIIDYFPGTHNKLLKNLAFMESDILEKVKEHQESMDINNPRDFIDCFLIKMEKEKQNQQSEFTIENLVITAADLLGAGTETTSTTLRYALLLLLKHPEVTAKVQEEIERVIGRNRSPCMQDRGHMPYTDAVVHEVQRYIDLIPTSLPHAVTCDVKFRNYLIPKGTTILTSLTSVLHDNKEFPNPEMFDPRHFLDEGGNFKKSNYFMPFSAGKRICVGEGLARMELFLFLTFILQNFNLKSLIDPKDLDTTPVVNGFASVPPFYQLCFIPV
Chain of Cytochrome P450 2C9 (P11712 whole entry): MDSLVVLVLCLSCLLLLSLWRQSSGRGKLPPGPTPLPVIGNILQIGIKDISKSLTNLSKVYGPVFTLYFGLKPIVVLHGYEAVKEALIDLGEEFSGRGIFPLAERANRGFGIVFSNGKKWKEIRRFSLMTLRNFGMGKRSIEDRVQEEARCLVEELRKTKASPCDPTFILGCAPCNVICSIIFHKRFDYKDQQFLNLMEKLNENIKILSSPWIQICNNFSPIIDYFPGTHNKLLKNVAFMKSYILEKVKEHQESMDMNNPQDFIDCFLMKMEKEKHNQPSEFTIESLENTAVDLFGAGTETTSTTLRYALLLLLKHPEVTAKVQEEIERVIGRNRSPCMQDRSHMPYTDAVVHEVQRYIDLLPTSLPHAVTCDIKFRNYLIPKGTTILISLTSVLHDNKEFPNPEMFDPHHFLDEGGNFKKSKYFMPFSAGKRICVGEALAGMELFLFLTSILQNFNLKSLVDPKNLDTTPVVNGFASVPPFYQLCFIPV
Chain of Cytochrome P450 2E1 (Oryctolagus cuniculus) (P08682 whole entry, looked up): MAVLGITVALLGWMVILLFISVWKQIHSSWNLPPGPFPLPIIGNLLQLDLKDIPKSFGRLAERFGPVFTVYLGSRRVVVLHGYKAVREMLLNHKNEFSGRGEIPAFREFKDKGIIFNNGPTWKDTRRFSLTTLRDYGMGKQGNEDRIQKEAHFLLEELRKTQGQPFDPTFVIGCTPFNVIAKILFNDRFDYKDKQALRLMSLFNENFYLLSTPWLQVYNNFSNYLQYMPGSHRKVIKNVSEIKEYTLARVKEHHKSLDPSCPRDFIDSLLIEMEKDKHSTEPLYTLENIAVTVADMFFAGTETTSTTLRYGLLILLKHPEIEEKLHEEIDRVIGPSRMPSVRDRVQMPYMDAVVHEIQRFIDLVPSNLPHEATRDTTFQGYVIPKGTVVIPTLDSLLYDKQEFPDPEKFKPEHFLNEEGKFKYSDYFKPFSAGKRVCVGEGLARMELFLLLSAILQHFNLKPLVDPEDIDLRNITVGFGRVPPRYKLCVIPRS
Chain of Cytochrome P450 2A13 (Q16696 whole entry): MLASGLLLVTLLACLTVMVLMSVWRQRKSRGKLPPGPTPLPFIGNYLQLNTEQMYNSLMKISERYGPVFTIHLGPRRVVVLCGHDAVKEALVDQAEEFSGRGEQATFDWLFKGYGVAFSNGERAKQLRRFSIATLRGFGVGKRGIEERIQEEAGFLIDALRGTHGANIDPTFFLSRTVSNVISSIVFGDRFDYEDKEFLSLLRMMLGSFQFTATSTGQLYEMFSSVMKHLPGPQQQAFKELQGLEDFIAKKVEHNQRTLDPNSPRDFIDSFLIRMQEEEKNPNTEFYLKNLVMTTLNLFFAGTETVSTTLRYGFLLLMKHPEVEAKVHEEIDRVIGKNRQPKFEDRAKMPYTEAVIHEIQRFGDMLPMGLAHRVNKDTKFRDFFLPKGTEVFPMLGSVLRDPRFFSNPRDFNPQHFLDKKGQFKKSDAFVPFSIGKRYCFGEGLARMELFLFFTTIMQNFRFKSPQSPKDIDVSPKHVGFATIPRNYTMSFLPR

Compound: C#CCOc1cc(C(=O)Nc2c(Cl)cncc2Cl)ccc1OC
- kinact (CYP2B6): 0.0015 s⁻¹
- Ki (Cytochrome P450 2B6 [1]): 5.1 µM

Compound: Cn1cc[nH]c1=S [METHIMAZOLE]
- mechanism based inhibition (Cytochrome P450 2B6 [2]): Cytochrome P450 mechanistic inhibitor: PMID 9172960
- mechanism based inhibition (Cytochrome P450 2C19 [3]): Cytochrome P450 mechanistic inhibitor: PMID 9172960
- mechanism based inhibition (Cytochrome P450 2C9): Cytochrome P450 mechanistic inhibitor: PMID 9172960

Compound: COc1c2occc2cc2ccc(=O)oc12 [METHOXSALEN]
- mechanism based inhibition (Cytochrome P450 2A13): Cytochrome P450 mechanistic inhibitor: PMID 15579482

- kinact (CYP2B4): 0.0533 s⁻¹
- Ki (Cytochrome P450 2B4 [4]): 37 µM
- partition_ratio (Cytochrome P450 2B4 [5]): 12
- kinact [6]: 0.002 s⁻¹
Compound: C#CC(C)OC(C)(C)C (centres undefined)
- mechanism based inhibition (Cytochrome P450 2B4 [4]; rabbit): Cytochrome P450 mechanistic inhibitor: PMID 15751959

Compound: NNC(=O)c1ccncc1 [ISONIAZID]
- Ki (Cytochrome P450 2C19 [7]): 10 µM
- Ki (Cytochrome P450 2C8 [8]): 170 µM
- Ki (Cytochrome P450 1A2 [9]): 56 µM
- Ki (Cytochrome P450 2A6): 60 µM
- Ki (Cytochrome P450 2C8 [10]): 374 µM

- Ki (Cytochrome P450 2C8 [11]): 51.2 µM
- Ki (Cytochrome P450 2C8 [10]): 1.5 µM
- kinact (CYP2C8 [12]): 0.000483 s⁻¹
- kinact (CYP2C8 [13]): 0.00132 s⁻¹
Compound: CCCCc1oc2ccccc2c1C(=O)c1cc(I)c(OCCN(CC)CC)c(I)c1 [AMIODARONE]

- kinact (CYP1A2): 0.00317 s⁻¹
- Ki (Cytochrome P450 1A2 [14]): 9 µM
Compound: Cc1c(-c2cnccn2)ssc1=S [OLTIPRAZ]

- Ki (Cytochrome P450 2B6 [15]): 0.9 µM
- mechanism based inhibition (Cytochrome P450 3A4): Cytochrome P450 mechanistic inhibitor
Compound: CC/C(=C(\c1ccccc1)c1ccc(OCCN(C)C)cc1)c1ccccc1 [TAMOXIFEN]
